Experimental findings from ChEMBL document CHEMBL6096654, “Allosteric inhibition of PTP1B by bromocatechol-chalcone derivatives” (Eur J Med Chem, 2025) are described below.

Molecules are shown by their SMILES. Active and inactive are the calls of the source. No cut-off for these calls is given here.

The nature of data set [1]: Inhibition of PTP1B N193A/K197A mutant (unknown origin) using pNPP as substrate incubated for 30 mins by spectrophotometry. Further details: species or system Homo sapiens.
Data set [2] deals with Mus musculus. The data set is described as follows: Hypoglycemic activity in BKD db/db mouse assessed as increase in insulin receptor phosphorylation in epididymal white adipose tissue at 40 to 80 mg/kg/day, po for 8 weeks by Western blot analysis. Format: functional, organism-based. The following applies: dose 40-80 mg/kg/day. (In general: Immunoblotting shows a protein as a band on a membrane.)

In data set [3] the test system is Mus musculus. The data set is described as follows: Hypoglycemic activity in BKD db/db mouse assessed as decrease in serum insulin level at 40 to 80 mg/kg/day, po qd for 7 weeks. The class given is functional, organism-based. The following applies: dose 40-80 mg/kg/day.
Data set [4] has as its system Hepatocyte. The data set is described as follows: Inhibition of insulin-resistance in insulin-resistant C57BL/J mouse […] primary hepatocytes assessed as increase in AKT phosphorylation pretreated for 24 hrs followed by compound washout and further addition of insulin measured after 20 mins by Western blot analysis. Format: functional, cell-based. The following applies: dose 0.625-2.5 µM.

For data set [5], the system named is Mus musculus. The data set is described as follows: Hypoglycemic activity in BKD db/db mouse assessed as decrease in blood glucose level at 40 to 80 mg/kg/day, po qd for 3 to 4 weeks. Format: functional, organism-based. The following applies: dose 40-80 mg/kg/day, time 3-4 weeks.
The nature of data set [6]: Toxicity in BKD db/db mouse assessed as effect on liver weight at 40 to 80 mg/kg/day, po qd for 8 weeks. Format: organism-based. The following applies: in vivo, 1344 h, dose 40-80 mg/kg/day.
Data set [7] has as its system Mus musculus. The data set can be described thus: Hypoglycemic activity in BKD db/db mouse assessed as increase in insulin receptor phosphorylation in skeletal muscle at 40 to 80 mg/kg/day, po for 8 weeks by Western blot analysis. The class given is functional, organism-based. The following applies: dose 40-80 mg/kg/day.
A short description of data set [8]: Toxicity in BKD db/db mouse assessed as effect on body weight at 40 to 80 mg/kg/day, po qd for 8 weeks. The following applies: in vivo, 1344 h, dose 40-80 mg/kg/day. Format: organism-based.
A short description of data set [9]: Toxicity in BKD db/db mouse assessed as effect on food intake at 40 to 80 mg/kg/day, po qd for 8 weeks. Format: organism-based. The following applies: in vivo, 1344 h, dose 40-80 mg/kg/day.
For data set [10], the system named is C2C12. The data set is described as follows: Inhibition of insulin-resistance in insulin-resistant mouse C2C12 cells assessed as increase in AKT phosphorylation pretreated for 24 hrs followed by compound washout and further addition of insulin measured after 20 mins by Western blot analysis. The class given is functional, cell-based. The following applies: dose 0.625-2.5 µM.

Data set [11] relates to Mus musculus. The data set can be described thus: Hypoglycemic activity in BKD db/db mouse assessed as increase in AKT phosphorylation in skeletal muscle at 40 to 80 mg/kg/day, po for 8 weeks by Western blot analysis. Format: functional, organism-based. The following applies: dose 40-80 mg/kg/day.
In data set [12] the test system is 3T3-L1. The data set can be described thus: Inhibition of insulin-resistance in insulin-resistant mouse 3T3-L1 cells assessed as increase in AKT phosphorylation pretreated for 24 hrs followed by compound washout and further addition of insulin measured after 20 mins by Western blot analysis. The class given is functional, cell-based. The following applies: dose 0.625-2.5 µM.

The nature of data set [13]: Toxicity in BKD db/db mouse assessed as effect on subcutaneous fat weight at 40 to 80 mg/kg/day, po qd for 8 weeks. The following applies: in vivo, 1344 h, dose 40-80 mg/kg/day. Format: organism-based.
The subject of data set [14] is Hepatocyte. The data set is described as follows: Inhibition of insulin-resistance in insulin-resistant C57BL/J mouse […] primary hepatocytes assessed as increase in insulin receptor phosphorylation pretreated for 24 hrs followed by compound washout and further addition of insulin measured after 20 mins by Western blot analysis. The following applies: dose 0.625-2.5 µM. The class given is functional, cell-based.

In data set [15] the test system is C2C12. The data set can be described thus: Induction of glucose uptake in mouse C2C12 cells cultured in low glucose medium containing compound for 24 hrs. The following applies: dose 0.625-2.5 µmol/L. The class given is functional, cell-based.
Data set [16] deals with T1, Tyrosine-protein phosphatase non-receptor type 2 (Homo sapiens, UniProt P17706).
T1 sequence (P17706 whole entry): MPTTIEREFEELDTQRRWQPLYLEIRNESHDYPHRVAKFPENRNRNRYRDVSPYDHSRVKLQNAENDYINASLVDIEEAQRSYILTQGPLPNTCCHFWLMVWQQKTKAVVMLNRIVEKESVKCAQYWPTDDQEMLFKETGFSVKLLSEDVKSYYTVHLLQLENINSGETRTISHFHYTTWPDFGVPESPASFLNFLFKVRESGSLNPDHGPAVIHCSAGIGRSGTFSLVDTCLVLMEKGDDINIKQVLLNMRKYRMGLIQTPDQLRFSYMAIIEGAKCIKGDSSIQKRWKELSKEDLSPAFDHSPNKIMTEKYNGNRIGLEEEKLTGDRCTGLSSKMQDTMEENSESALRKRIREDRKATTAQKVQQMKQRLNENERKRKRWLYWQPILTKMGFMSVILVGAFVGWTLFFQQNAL
The data set can be described thus: Inhibition of TCPTP (unknown origin) using pNPP as substrate incubated for 30 mins by spectrophotometry.

The test system of data set [17] is Mus musculus. The data set is described as follows: Hypoglycemic activity in BKD db/db mouse assessed as increase in AKT phosphorylation in epididymal white adipose tissue at 40 to 80 mg/kg/day, po for 8 weeks by Western blot analysis. Format: functional, organism-based. The following applies: dose 40-80 mg/kg/day.
Data set [18] concerns the target T2, Tyrosine-protein phosphatase non-receptor type 1 (Homo sapiens, UniProt P18031).
T2 sequence (P18031 whole entry): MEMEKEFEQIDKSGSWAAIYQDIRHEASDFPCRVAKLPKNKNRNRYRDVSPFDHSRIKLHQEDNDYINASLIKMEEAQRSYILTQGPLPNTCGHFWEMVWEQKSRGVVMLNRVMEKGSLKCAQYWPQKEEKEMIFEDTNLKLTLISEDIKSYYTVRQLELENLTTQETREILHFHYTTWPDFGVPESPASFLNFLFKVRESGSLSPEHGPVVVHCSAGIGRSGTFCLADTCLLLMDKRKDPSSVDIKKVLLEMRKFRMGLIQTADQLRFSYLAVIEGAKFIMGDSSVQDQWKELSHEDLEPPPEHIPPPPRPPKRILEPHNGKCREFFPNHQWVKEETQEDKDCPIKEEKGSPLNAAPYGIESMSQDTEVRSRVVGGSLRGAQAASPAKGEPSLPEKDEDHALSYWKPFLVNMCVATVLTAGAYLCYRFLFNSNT
The data set is described as follows: Binding affinity to PTP1B (unknown origin) assessed as dissociation constant by SPR analysis. (SPR reads the build-up and loss of mass on a sensor chip optically.)

Data set [19] addresses T2, Tyrosine-protein phosphatase non-receptor type 1. The data set can be described thus: Allosteric inhibition of recombinant human PTP1B (1 to 321 residues) using pNPP as substrate preincubated for 5 mins followed by substrate addition measured after 10 mins.

For orientation: IC50 means the concentration at which inhibition is half-maximal. As a reminder, the Kd is the constant that tells how readily two partners part at equilibrium. As a reminder, the Ki is the equilibrium dissociation constant of an inhibitor or competing ligand from its target. Turning to `CCOc1ccc(Oc2ccc(C(=O)/C=C/c3cc(O)c(O)c(Br)c3Br)cc2)cc1`, the IC50 in data set [1] worked out at 14.8 µM; in data set [16] it was 15.8 µM. The outcome in [2], in data set [3], in [5], in data set [7], in data set [11] and in data set [17] was Active. For the same compound, the inhibition result in data set [4], in data set [10], in data set [12] and in data set [14] was “Dose-dependent-effect” each time. The Activity entry is “Non-toxic” in data set [6]; “Non-toxic” in data set [8]; “Non-toxic” in [9]; “Non-toxic” in data set [13]; “Dose-dependent-effect” in data set [15]. Also, the Kd in data set [18] is 0.0612 µM. Also, the Ki in [19] came to 2.33 µM.
